In ChEMBL document CHEMBL1159271, “A reinvestigation of Maprounea triterpenes” (J Nat Prod, 1995):
Active and inactive are the calls of the source. The calls are words filed in the database; no cut-off is given here.

Legend:
[1] = molecular target: T1, Human immunodeficiency virus type 1 reverse transcriptase (Human immunodeficiency virus 1, UniProt Q72547); test: Inhibition of HIV1 recombinant reverse transcriptase by UIC assay
[2] = molecular target: T1, Human immunodeficiency virus type 1 reverse transcriptase; test: Inhibition of HIV1 recombinant reverse transcriptase by NCI assay
Rattus norvegicus = species: Rattus norvegicus; test: Displacement of [3H]phorbol dibutyrate from rat brain membrane; assay type: tissue-based

Structure (SMILES)	IC50 [1] [µM]	IC50 [2] [µM]	Activity (Rattus norvegicus)
CC1(C)CC[C@]2(C(=O)O)CC=C3[C@]4(C)CC[C@H]5C(C)(C)[C@@H](OC(=O)c6ccc(O)cc6)CC[C@]5(C)[C@H]4CC[C@@]3(C)[C@H]2C1	10.6	200	
CC1(C)CC[C@]2(C(=O)O)CC=C3[C@]4(C)CC[C@H]5C(C)(C)[C@H](O)[C@@H](OC(=O)c6ccc(O)cc6)C[C@]5(C)[C@H]4CC[C@@]3(C)[C@H]2C1	15	40	
CC1(C)CC[C@]2(C(=O)O)CC=C3[C@]4(C)CC[C@H]5C(C)(C)[C@@H](OC(=O)c6ccc(O)cc6)[C@H](O)C[C@]5(C)[C@H]4CC[C@@]3(C)[C@H]2C1	14.4	> 200	
CC1(C)CC[C@]2(C(=O)O)CC=C3[C@]4(C)CC[C@H]5C(C)(C)[C@@H](O)[C@H](OC(=O)c6ccc(O)cc6)C[C@]5(C)[C@H]4CC[C@@]3(C)[C@H]2C1	52	> 200	
CC1(C)CC[C@]2(C(=O)O)CC=C3[C@]4(C)CC[C@H]5C(C)(C)[C@@H](OC(=O)/C=C/c6ccc(O)cc6)CC[C@]5(C)[C@H]4CC[C@@]3(C)[C@H]2C1	11.5	60	

These reach a lower IC50 [1]. Values come first.

IC50 [1] [µM]	IC50 [2] [µM]	Activity (Rattus norvegicus)	Structure (SMILES)
7.9	60		CC1(C)CC[C@]2(C(=O)O)CC=C3[C@]4(C)CC[C@H]5C(C)(C)[C@@H](OC(=O)c6ccc(O)cc6)[C@H](OC(=O)c6ccc(O)cc6)C[C@]5(C)[C@H]4CC[C@@]3(C)[C@H]2C1
4.9			CC1(C)CC[C@]2(C(=O)O)CC=C3[C@]4(C)CC[C@H]5C(C)(C)[C@@H](O)C[C@@H](O)[C@]5(C)[C@H]4CC[C@@]3(C)[C@H]2C1
3.7	> 100	Active	CC1(C)CC[C@]2(C(=O)O)CC=C3[C@]4(C)CC[C@H]5C(C)(C)[C@@H](OC(=O)c6ccc(O)cc6)C[C@@H](O)[C@]5(C)[C@H]4CC[C@@]3(C)[C@H]2C1
3.4	> 100		CC1(C)CC[C@]2(C(=O)O)CC=C3[C@]4(C)CC[C@H]5C(C)(C)C[C@H](O)[C@@H](O)[C@]5(C)[C@H]4CC[C@@]3(C)[C@H]2C1
